Measured values as given in patent US11840686B2, “Modulation of prekallikrein (PKK) expression” (Ionis Pharmaceuticals, Inc., priority 2013, dated 2023).
Strand notation (5' to 3'): a small letter for the sugar, then the base; units joined by * are phosphorothioate-linked, units joined directly phosphodiester-linked; [ ] holds rarer units or linkages, { } end groups; capitals alone tell only the bases. e = 2'-O-(2-methoxyethyl) (MOE); [5mC] = 5-methylcytosine; d = 2'-deoxy (DNA)

Tests used:
human PKK mRNA [1] = assay: Dose-dependent antisense inhibition of human PKK in HepaRG cells, 0.19-5.00 uM (Example 5); type: cell-based; conditions: for percent inhibition of PKK mRNA, 0.19 μM: 0.19 μM antisense oligonucleotide; for percent inhibition of PKK mRNA, 0.56 μM: 0.56 μM antisense oligonucleotide; for percent inhibition of PKK mRNA, 1.67 μM: 1.67 μM antisense oligonucleotide; for percent inhibition of PKK mRNA, 5.00 μM: 5.00 μM antisense oligonucleotide
Protocol: Cells were plated at a density of 20,000 cells per well and transfected using electroporation with 0.19 μM, 0.56 μM, 1.67 μM, and 5.00 μM concentrations of antisense oligonucleotide. After a treatment period of approximately 16 hours, RNA was isolated from the cells and PKK mRNA levels were measured by quantitative real-time PCR. Human PKK primer probe set RTS3454 was used to measure mRNA levels. PKK mRNA levels were adjusted according to total RNA content, as measured by RIBOGREEN®. The antisense oligonucleotides were tested in a series of experiments that had similar culture conditions.
The half maximal inhibitory concentration (IC50) of each oligonucleotide is also presented.

human PKK mRNA [2] = assay: Antisense inhibition of human PKK mRNA in HepaRG cells, 5,000 nM (Example 2); type: cell-based
How it was run: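 HepaRG cells (20,000/well) electroporated with 5,000 nM MOE gapmer (phosphorothioate backbone, 5-methylcytosines) and harvested after ~24 h. PKK mRNA measured by qRT-PCR with primer probe set RTS3454, normalized to RIBOGREEN total RNA; percent inhibition versus untreated cells.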

[3] = HepaRG cells, electroporation, approximately 16 hours, Table 36
[4] = 4 point dose response, HepaRG cells, Table 36
[5] = human PKK mRNA in HepaRG cells, 5-10-5 gapmers, Table 14
[6] = HepaRG cells, electroporation, approximately 16 hours, Table 41
[7] = 4 point dose response, HepaRG cells, Table 41
[8] = Table 34, HepaRG, electroporation, ~16 h
[9] = Table 34, PKK mRNA, HepaRG, electroporation, ~16 h
[10] = Table 13, human PKK mRNA in HepaRG cells, 5-10-5 gapmers
[11] = HepaRG cells, electroporation, approximately 16 hours, Table 38
[12] = HepaRG cells, electroporation, approximately 16 hours, Table 37
[13] = HepaRG cells, electroporation, approximately 16 hours, Table 35

## 547617 (antisense e[5mC]*eT*eG*eT*e[5mC]*d[5mC]*dT*dA*dT*dA*dT*d[5mC]*dA*d[5mC]*dT*eG*eT*eA*e[5mC]*e[5mC]) [compound 547617]
Human PKK mRNA [1]; [3]
  percent inhibition of PKK at 0.19 μM: 52%
  percent inhibition of PKK at 0.56 μM: 66%
  percent inhibition of PKK at 1.67 μM: 77%
  percent inhibition of PKK at 5.00 μM: 93%
Human PKK mRNA [1]; [4]
  IC50: 200 nM
Human PKK mRNA [1]; HepaRG cells
  percent inhibition of PKK mRNA, 0.19 μM: 17%
  percent inhibition of PKK mRNA, 0.56 μM: 37%
  percent inhibition of PKK mRNA, 1.67 μM: 79%
  percent inhibition of PKK mRNA, 5.00 μM: 98%
Human PKK mRNA [1]; HepaRG cells, 0.19-5.00 μM
  IC50: 700 nM
Human PKK mRNA [2]; [5]
  % inhibition: 91%

## 546827 (e[5mC]*eA*eG*eT*eA*dT*d[5mC]*dA*d[5mC]*dT*dG*dT*dA*d[5mC]*dT*eA*eG*eT*eT*eT; antisense) [compound 546827]
Human PKK mRNA [1]; [6]
  percent inhibition of PKK at 5.00 μM: 96%
  percent inhibition of PKK at 0.19 0μM: 23%
  percent inhibition of PKK at 0.56 0μM: 74%
Human PKK mRNA [1]; 1.67 1μM, HepaRG cells, electroporation, approximately 16 hours, Table 41
  percent inhibition of PKK at 1.67 1μM: 98%
Human PKK mRNA [1]; [7]
  IC50: 400 nM
Human PKK mRNA [1]; [8]
  percent inhibition of PKK at 0.19 μM: 32%
  percent inhibition of PKK at 0.56 μM: 70%
  percent inhibition of PKK at 1.67 μM: 84%
  percent inhibition of PKK at 5.00 μM: 90%
Human PKK mRNA [1]; [9]
  IC50: 300 nM
Human PKK mRNA [2]; [10]
  % inhibition: 98%

## 546825 (eG*eT*eA*eT*e[5mC]*dA*d[5mC]*dT*dG*dT*dA*d[5mC]*dT*dA*dG*eT*eT*eT*e[5mC]*e[5mC]; antisense) [compound 546825]
Human PKK mRNA [1]; [6]
  percent inhibition of PKK at 5.00 μM: 99%
  percent inhibition of PKK at 0.19 0μM: 38%
  percent inhibition of PKK at 0.56 0μM: 82%
Human PKK mRNA [1]; [7]
  IC50: 200 nM
Human PKK mRNA [1]; [8]
  percent inhibition of PKK at 0.19 μM: 46%
  percent inhibition of PKK at 0.56 μM: 73%
  percent inhibition of PKK at 1.67 μM: 86%
  percent inhibition of PKK at 5.00 μM: 88%
Human PKK mRNA [1]; [9]
  IC50: 200 nM
Human PKK mRNA [2]; [10]
  % inhibition: 96%

## 546429 (eG*e[5mC]*e[5mC]*e[5mC]*eA*d[5mC]*d[5mC]*dA*dA*d[5mC]*dA*dA*dT*d[5mC]*dT*e[5mC]*eT*eG*eG*eT; antisense) [compound 546429]
Human PKK mRNA [1]; [11]
  percent inhibition of PKK at 0.19 μM: 6%
  percent inhibition of PKK at 0.56 μM: 10%
  percent inhibition of PKK at 1.67 μM: 44%
  percent inhibition of PKK at 5.00 μM: 69%
Human PKK mRNA [1]; 4 point dose response, HepaRG cells, Table 38
  IC50: 2300 nM
Human PKK mRNA [2]; HepaRG cells, electroporation, 5,000 nM antisense oligonucleotide, approx. 24 hours, primer probe set RTS3454, relative to untreated control cells, Table 12
  % inhibition: 84%

## 546739 (eA*eT*eT*e[5mC]*eG*dG*dT*dG*dT*d[5mC]*dT*dT*dT*dA*d[5mC]*eT*eG*eG*e[5mC]*eT; antisense) [compound 546739]
Human PKK mRNA [1]; [12]
  percent inhibition of PKK at 0.19 μM: 35%
  percent inhibition of PKK at 0.56 μM: 55%
  percent inhibition of PKK at 1.67 μM: 57%
  percent inhibition of PKK at 5.00 μM: 79%
Human PKK mRNA [1]; 4 point dose response, HepaRG cells, Table 37
  IC50: 600 nM
Human PKK mRNA [1]; HepaRG cells
  percent inhibition of PKK mRNA, 0.19 μM: 4%
  percent inhibition of PKK mRNA, 0.56 μM: 62%
  percent inhibition of PKK mRNA, 1.67 μM: 84%
  percent inhibition of PKK mRNA, 5.00 μM: 86%
Human PKK mRNA [1]; HepaRG cells, 0.19-5.00 μM
  IC50: 600 nM
Human PKK mRNA [2]; [10]
  % inhibition: 89%

## 547694 (antisense eG*eT*e[5mC]*eA*e[5mC]*dT*dG*dT*dA*d[5mC]*d[5mC]*dT*dA*dT*dA*eA*e[5mC]*eT*eG*eT) [compound 547694]
Human PKK mRNA [1]; [13]
  percent inhibition of PKK at 0.19 μM: 0%
  percent inhibition of PKK at 0.56 μM: 29%
  percent inhibition of PKK at 1.67 μM: 67%
  percent inhibition of PKK at 5.00 μM: 90%
Human PKK mRNA [1]; 4 point dose response, HepaRG cells, Table 35
  IC50: 1200 nM
Human PKK mRNA [2]; HepaRG cells, 5,000 nM antisense oligonucleotide, 5-10-5 gapmers, Table 16
  % inhibition: 92%

## 546854 (eT*eA*eA*e[5mC]*eA*dG*dT*dA*dT*d[5mC]*dA*d[5mC]*dT*dG*dT*e[5mC]*e[5mC]*eT*eA*eT; antisense) [compound 546854]
Human PKK mRNA [1]; [3]
  percent inhibition of PKK at 0.19 μM: 23%
  percent inhibition of PKK at 0.56 μM: 39%
  percent inhibition of PKK at 1.67 μM: 83%
  percent inhibition of PKK at 5.00 μM: 94%
Human PKK mRNA [1]; [4]
  IC50: 600 nM
Human PKK mRNA [2]; [5]
  % inhibition: 90%
